Molecular target: full-length human His-tagged BTK (Homo sapiens (Human), UniProt Q06187)
Experiment: BTK Assay (HTRF, Cisbio KinEASE-TK)
Assay type: biochemical
Details: 6 nM BTK, 30 uM ATP, 15 min preincubation
Procedure: An HTRF assay (Cisbio KinEASE-TK cat #62TKOPEC) was performed to quantitate the ability of test compounds to inhibit BTK mediated phosphorylation of substrate. Assays were assembled in 384 well plates where 6 nM of full-length human His-tagged BTK (Life Technologies cat # PV3587) and test compound at varying concentrations were preincubated for 15 minutes at 28° C. Then, 1 uM of TK substrate-biotin and 30 uM ATP were added and incubated for an additional 30 minutes at 28° C.

full-length human His-tagged BTK, sequence (Q06187 whole entry): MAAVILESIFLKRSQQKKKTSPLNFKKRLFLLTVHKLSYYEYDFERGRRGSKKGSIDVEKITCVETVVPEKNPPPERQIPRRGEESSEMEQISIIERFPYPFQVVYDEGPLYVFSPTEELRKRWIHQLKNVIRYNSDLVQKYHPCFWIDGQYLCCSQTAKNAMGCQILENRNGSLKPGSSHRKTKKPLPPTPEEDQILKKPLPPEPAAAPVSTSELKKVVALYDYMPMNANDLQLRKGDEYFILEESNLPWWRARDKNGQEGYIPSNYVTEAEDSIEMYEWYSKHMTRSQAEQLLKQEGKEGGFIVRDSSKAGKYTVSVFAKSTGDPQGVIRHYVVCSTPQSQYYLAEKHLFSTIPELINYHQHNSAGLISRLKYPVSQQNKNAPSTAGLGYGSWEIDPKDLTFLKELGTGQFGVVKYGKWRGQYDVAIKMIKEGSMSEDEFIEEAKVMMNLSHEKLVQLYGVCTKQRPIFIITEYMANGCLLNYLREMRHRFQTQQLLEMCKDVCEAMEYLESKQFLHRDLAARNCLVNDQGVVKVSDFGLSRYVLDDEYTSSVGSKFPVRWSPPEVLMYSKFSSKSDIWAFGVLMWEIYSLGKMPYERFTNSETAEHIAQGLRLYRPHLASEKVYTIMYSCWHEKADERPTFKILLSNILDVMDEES

Structure (SMILES)	IC50
CC#CC(=O)N1CC[C@]2(C1)C[C@H](n1nc(-c3ccc(OCC)cc3)c(C(N)=O)c1N)C2 [Example 167]	0.9 nM
CC#CC(=O)N1CCC[C@@H](c2nc(-c3ccc(Oc4ccccc4)cc3)c(C(N)=O)s2)C1 [Example 52]	18 nM
C=CC(=O)N1CCC[C@@H](n2cc(C(N)=O)c(-c3ccc(Cc4ccccc4)cc3)n2)C1 [Example 9]	14 nM
C=CC(=O)N1CC2(CC(n3nc(-c4ccc(OCC5CC5)cc4)c(C(N)=O)c3N)C2)C1 [Example 104]	19 nM
C=CC(=O)N1CCC[C@@H](n2cc(C(N)=O)c(-c3cccc(NS(=O)(=O)c4ccc(C)cc4)c3)n2)C1 [Example 11]	5500 nM
CC#CC(=O)N1CC[C@]2(C1)C[C@@H](n1nc(-c3ccc(Oc4ccccc4)cn3)c(C(N)=O)c1N)C2 [Example 118]	0.5 nM
C=CC(=O)N1CCC[C@@H](c2nc(-c3ccc(Oc4ccccc4)cc3)c(C(N)=O)s2)C1 [Example 51]	1.7 nM
C=CC(=O)N1CCC[C@@H](n2cc(C(N)=O)c(-c3ccc(Oc4cccc(F)c4)cc3)n2)C1 [Example 73]	9.3 nM
C=CC(=O)N1CCC[C@@H](n2cc(C(N)=O)c(-c3ccc(Oc4ccccc4)cc3)n2)C1 [Example 29]	3.2 nM
C=CC(=O)N1CC[C@]2(C1)C[C@@H](c1nc(-c3ccc(Oc4ccccc4)cc3)c(C(N)=O)s1)C2 [Example 79]	6.4 nM
C=CC(=O)N1CC2(CC(n3nc(-c4ccc(Oc5ccccc5)cn4)c(C(N)=O)c3N)C2)C1 [Example 103]	2.8 nM
C=CC(=O)NCCn1nc(-c2ccc(Oc3ccccc3)cc2)c(C(N)=O)c1N [Example 44]	1 nM
CN(C)C/C=C/C(=O)N1CCC[C@@H](n2cc(C(N)=O)c(-c3ccc(Oc4ccccc4)cc3)n2)C1 [Example 30]	57 nM
CC#CC(=O)N1CC[C@]2(C1)C[C@H](n1cc(C(N)=O)c(-c3ccc(Oc4ccccc4)cc3)n1)C2 [Example 38]	13 nM
C=CC(=O)NC1CC2(C1)CC(n1nc(-c3ccc(Oc4ccccc4)cc3)c(C(N)=O)c1N)C2 (centres unmarked) [Example 97]	0.8 nM
C=CC(=O)N1CCC[C@@H](n2cc(C(N)=O)c(-c3ccc(Oc4ccc(OC)cc4)cc3)n2)C1 [Example 67]	38 nM
CC#CC(=O)N1CCC[C@@H](n2cc(C(N)=O)c(-c3ccc(Oc4ccccc4)cc3)n2)C1 [Example 31]	80 nM
C=CC(=O)N1CCC2(CC1)CC(n1cc(C(N)=O)c(-c3ccc(Oc4ccccc4)cc3)n1)C2 [Example 86]	95 nM
C=CC(=O)N1CCC[C@@H](n2cc(C(N)=O)c(-c3ccc(Oc4cccc(Cl)c4)cc3)n2)C1 [Example 68]	41 nM
C=CC(=O)N1CC2(CC(n3nc(-c4ccc(F)c(C(F)(F)F)c4)c(C(N)=O)c3N)C2)C1 [Example 144]	72 nM
C=CC(=O)N1CC[C@]2(C1)C[C@H](n1nc(-c3cccc(OC)c3)c(C(N)=O)c1N)C2 [Example 155]	7.3 nM
C=CC(=O)N1CC2(CC(n3nc(-c4ccc(OC(C)C)c(Cl)c4)c(C(N)=O)c3N)C2)C1 [Example 124]	10 nM
C=CC(=O)N1CCC2(CC1)CC(c1nc(-c3ccc(Oc4ccccc4)cc3)c(C(N)=O)s1)C2 [Example 84]	52 nM
C=CC(=O)N1CC[C@]2(C1)C[C@H](n1nc(-c3ccc(F)c(OCC(F)(F)F)c3)c(C(N)=O)c1N)C2 [Example 146]	22 nM
C=CC(=O)N1CCC[C@@H](n2cc(C(N)=O)c(-c3ccc(NC(=O)c4cc5ccccc5n4C)c(OC)c3)n2)C1 [Example 25]	5.1 nM
C=CC(=O)N1CCC[C@@H](n2cc(C(N)=O)c(-c3ccc(Oc4ccccc4)c(OC)c3)n2)C1 [Example 22]	7.6 nM
CC#CC(=O)N1CCC(Cn2cc(C(N)=O)c(-c3ccc(Oc4ccccc4)cc3)n2)C1 (centres unmarked) [Example 43]	51 nM
C=CC(=O)N1CCC[C@@H](n2cc(C(N)=O)c(-c3ccc(NC(=O)c4ccc(C(F)(F)F)cc4F)c(OC)c3)n2)C1 [Example 26]	22 nM
C=CC(=O)N1CC[C@]2(C1)C[C@@H](n1nc(-c3ccc(Oc4ccccc4)nc3)c(C(N)=O)c1N)C2 [Example 114]	3.4 nM
